For series [1], the target named is T1, β2AR (Homo sapiens, UniProt P07550). Nature of the series: 125I-CYP competition radioligand binding at β2AR in HDL particles (nanodiscs).
Series [2] addresses T1, β2AR. Nature of the series: 35S-GTPγS binding to heterotrimeric Gs (SPA), β2AR in HDL. To be noted: epinephrine (10 µM) stimulation; cmpd-6 or A9 20 µM, Nb6B9 1 µM, ICI-118551 10 µM. In general terms: GTPγS is a poorly hydrolysed GTP analogue; its binding reports G protein activation.
Description: After incubations, the β2AR-Gs complexes were captured on YSi beads.

T1 sequence (P07550 whole entry): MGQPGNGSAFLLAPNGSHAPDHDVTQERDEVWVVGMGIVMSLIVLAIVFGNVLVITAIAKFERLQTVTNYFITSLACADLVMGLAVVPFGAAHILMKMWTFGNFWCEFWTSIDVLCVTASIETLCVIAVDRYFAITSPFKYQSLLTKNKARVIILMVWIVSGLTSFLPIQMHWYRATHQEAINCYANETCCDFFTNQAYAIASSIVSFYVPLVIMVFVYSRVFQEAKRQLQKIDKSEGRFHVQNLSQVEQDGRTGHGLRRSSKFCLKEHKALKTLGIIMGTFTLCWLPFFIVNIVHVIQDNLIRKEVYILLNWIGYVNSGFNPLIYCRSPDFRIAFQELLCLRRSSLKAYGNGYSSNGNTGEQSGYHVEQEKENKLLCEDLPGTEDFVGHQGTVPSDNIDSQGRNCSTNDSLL

In general, Kd refers to the free concentration of one partner at which half of the binding sites on the other are occupied at equilibrium, for simple one-to-one binding. Consider `CC(C)N(C)S(=O)(=O)c1ccc(Sc2ccc(C(N)=O)cc2)c(C(=O)N[C@@H](CC(N)=O)Cc2ccc(C(C)(C)C)cc2)c1` [A9], for which the Kd at β2AR [1] (LogKT, dissociation constant of PAM, carvedilol-bound β2AR) was 2950 nM; on β2AR [1] (binding affinity of modulator for the receptor in the presence of carvedilol, from shifts of carvedilol LogIC50 versus modulator dose), ~2900 nM. The “PAM activity with agonists including epinephrine (affinity shift)” value at β2AR [1] (analog 20 µM, Fig. 5A(i), 5C) is recorded as “absolutely no PAM activity”. For the same compound, at β2AR [1] (analog 20 µM, Fig. 5A(ii)), the “cooperativity with carvedilol (affinity shift)” value is “retains its positive cooperativity with carvedilol”. Moreover, the “35S-GTPγS binding to Gs / activation of Gs” value at β2AR [2] is listed as “markedly blocks the agonist-stimulated activation of Gs”.

The values above are taken from paper PMC8998675 (Molecular Pharmacology, 2021).
